Measurements published in patent publication US12319672B2, “Alpha-D-galactopyranoside derivatives” (Idorsia Pharmaceuticals Ltd, priority 2019, dated 2025).

How the values were obtained:
human Gal-3 (hGal-3) = human Gal-3 (hGal-3) (Homo sapiens (Human), UniProt P17931); assay: Competitive binding assay: binding of biotinylated hGal-3 to microplate-adsorbed asialofetuin (ASF); conditions: Activity on hGal-3; mean values of several measurements
Method in brief: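 Spectrophotometric readout (streptavidin-peroxidase, ABTS) of biotinylated galectin retained on ASF-coated wells. Biotinylated hGal-1 or hGal-3, 300-1000 ng/mL, co-incubated with test compound 3 h at 4° C, then washed. Mean IC50 from repeat runs.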

human Gal-1 (hGal-1) = assay: Competitive binding assay: binding of biotinylated hGal-1 to microplate-adsorbed asialofetuin (ASF); conditions: Activities on hGal-1; mean values of several measurements
Method in brief: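 For hGal-1, a variant with all six cysteines replaced by serines is preferred. Either galectin, biotinylated at 300-1000 ng/mL, competes with compound for microplate-bound ASF over 3 h at 4° C; peroxidase/ABTS detection gives IC50, averaged.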

Chain of human Gal-3 (hGal-3) (P17931 whole entry): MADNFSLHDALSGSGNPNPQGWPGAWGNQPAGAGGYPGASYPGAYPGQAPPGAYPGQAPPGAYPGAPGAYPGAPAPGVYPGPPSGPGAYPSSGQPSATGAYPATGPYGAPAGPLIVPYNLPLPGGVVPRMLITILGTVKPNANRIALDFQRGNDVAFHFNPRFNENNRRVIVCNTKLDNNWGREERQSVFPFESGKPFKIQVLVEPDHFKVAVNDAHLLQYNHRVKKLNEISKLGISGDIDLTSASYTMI
Chain of human Gal-1 (hGal-1) (P09382 2-135 limits assumed): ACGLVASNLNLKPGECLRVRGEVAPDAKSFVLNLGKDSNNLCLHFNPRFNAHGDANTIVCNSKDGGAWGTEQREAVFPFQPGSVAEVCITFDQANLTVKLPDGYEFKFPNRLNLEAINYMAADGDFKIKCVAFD

IC50 (human Gal-3 (hGal-3))	IC50 (human Gal-1 (hGal-1))	SMILES
210 nM	1990 nM	OC[C@H]1O[C@H](Cc2cc(C3CCC(O)CC3)on2)[C@H](O)[C@@H](n2cc(-c3cc(F)c(F)c(F)c3)nn2)[C@H]1O (stereo partly drawn) [Example 2.13, (2R,3R,4R,5R,6R)-2-((5-(4-hydroxycyclohexyl)isoxazol-3-yl)methyl)-6-(hydroxymethyl)-4-(4-(3,4,5-trifluorophenyl)-1H-1,2,3-triazol-1-yl)tetrahydro-2H-pyran-3,5-diol]
190 nM	4580 nM	OC[C@H]1O[C@H](Cc2cc(C3CCC(O)CC3)on2)[C@H](O)[C@@H](n2cc(-c3cc(F)c(F)c(F)c3)nn2)[C@H]1O (stereo partly drawn) [Example 2.14, (2R,3R,4R,5R,6R)-2-((5-((1r,4r)-4-hydroxycyclohexyl)isoxazol-3-yl)methyl)-6-(hydroxymethyl)-4-(4-(3,4,5-trifluorophenyl)-1H-1,2,3-triazol-1-yl)tetrahydro-2H-pyran-3,5-diol]
95 nM	2140 nM	CCC(=O)O[C@@H]1[C@@H](n2cc(-c3cc(F)c(F)c(F)c3)nn2)[C@@H](O)[C@@H](CO)O[C@@H]1Cc1cc(C2CCN(C(=O)OC(C)(C)C)CC2)on1 [Example 2.15, tert-butyl 4-(3-(((2R,3R,4S,5R,6R)-5-hydroxy-6-(hydroxymethyl)-3-(propionyloxy)-4-(4-(3,4,5-trifluorophenyl)-1H-1,2,3-triazol-1-yl)tetrahydro-2H-pyran-2-yl)methyl)isoxazol-5-yl)piperidine-1-carboxylate]
160 nM	11600 nM	CCC(=O)O[C@@H]1[C@@H](n2cc(-c3cc(F)c(F)c(F)c3)nn2)[C@@H](O)[C@@H](CO)O[C@@H]1Cc1cc(C2CCNCC2)on1 [Example 2.16, (2R,3R,4S,5R,6R)-5-hydroxy-6-(hydroxymethyl)-2-((5-(piperidin-4-yl)isoxazol-3-yl)methyl)-4-(4-(3,4,5-trifluorophenyl)-1H-1,2,3-triazol-1-yl)tetrahydro-2H-pyran-3-yl propionate]
130 nM	780 nM	CCO[C@@H]1[C@@H](n2cc(-c3cc(F)c(F)c(F)c3)nn2)[C@@H](O)[C@@H](CO)O[C@@H]1Cc1cc(C2CCN(C(=O)OC(C)(C)C)CC2)on1 [Example 2.17, tert-butyl 4-(3-(((2R,3R,4S,5R,6R)-3-ethoxy-5-hydroxy-6-(hydroxymethyl)-4-(4-(3,4,5-trifluorophenyl)-1H-1,2,3-triazol-1-yl)tetrahydro-2H-pyran-2-yl)methyl)isoxazol-5-yl)piperidine-1-carboxylate]
220 nM	6300 nM	CCC(=O)O[C@@H]1[C@@H](n2cc(-c3cc(F)c(F)c(F)c3)nn2)[C@@H](O)[C@@H](CO)O[C@@H]1Cc1cc(C2CCNCC2)on1 [Example 2.18, (2R,3R,4S,5R,6R)-5-hydroxy-6-(hydroxymethyl)-2-((5-(piperidin-4-yl)isoxazol-3-yl)methyl)-4-(4-(3,4,5-trifluorophenyl)-1H-1,2,3-triazol-1-yl)tetrahydro-2H-pyran-3-yl propionate]
170 nM	1050 nM	CCCO[C@@H]1[C@@H](n2cc(-c3cc(F)c(F)c(F)c3)nn2)[C@@H](O)[C@@H](CO)O[C@@H]1Cc1cc(C2CCN(C(=O)OC(C)(C)C)CC2)on1 [Example 2.19, tert-butyl 4-(3-(((2R,3R,4S,5R,6R)-5-hydroxy-6-(hydroxymethyl)-3-propoxy-4-(4-(3,4,5-trifluorophenyl)-1H-1,2,3-triazol-1-yl)tetrahydro-2H-pyran-2-yl)methyl)isoxazol-5-yl)piperidine-1-carboxylate]

SMILES	IC50 (human Gal-3 (hGal-3))	IC50 (human Gal-1 (hGal-1))
CCCCO[C@@H]1[C@@H](n2cc(-c3cc(F)c(F)c(F)c3)nn2)[C@@H](O)[C@@H](CO)O[C@@H]1Cc1cc(C2CCN(C(=O)OC(C)(C)C)CC2)on1 [Example 2.20, tert-butyl 4-(3-(((2R,3R,4S,5R,6R)-3-butoxy-5-hydroxy-6-(hydroxymethyl)-4-(4-(3,4,5-trifluorophenyl)-1H-1,2,3-triazol-1-yl)tetrahydro-2H-pyran-2-yl)methyl)isoxazol-5-yl)piperidine-1-carboxylate]	390 nM	2030 nM
